Experimental findings from US20260007133A1, “HERBICIDAL COMPOSITION COMPRISING AZINE COMPOUNDS” (BASF SE, priority 2022, published 2026) are described below.

Common to all, as to type: in vivo
The test system of one assay is Ambrosia artemisiifolia. Nature of the assay: Greenhouse pre-emergence (PRE) herbicidal test on AMBEL. The settings on record: Ambrosia artemisiifolia, pre-emergence; for inhibition at 8 g/ha: use rate 8 gai/ha.
For the next assay, the system named is Commelina benghalensis. Nature of the assay: Greenhouse pre-emergence (PRE) herbicidal test on COMBE. The settings on record: Commelina benghalensis, pre-emergence, 480 h, PRE, COMBE, 20 DAT. The method in brief: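 Seeds were sown per species in loamy sand with ~3.0% humus, treated pre-emergence and kept at 10-25° C or 20-35° C depending on species. Damage was scored at 20 days after treatment on a 0-100 scale (100 = no emergence or complete destruction of above-ground parts, 0 = no damage).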

For a further assay, the system named is Amaranthus retroflexus. Briefly: Greenhouse post-emergence (POST) herbicidal test on AMARE. The settings on record: Amaranthus retroflexus, post-emergence, 480 h, POST, AMARE, 20 DAT, read-out: solo application % activity. The gist of the method:
(§1)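 POST spray at 3–15 cm plant height, BBCH stage as given; loamy sand, ~3.0% humus; 10-25° C / 20-35° C per species; 0–100 damage scale; read 20 DAT.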

For another assay, the system named is Echinochloa crus-galli. Briefly: Greenhouse post-emergence (POST) herbicidal test on ECHCG. The settings on record: Echinochloa crus-galli, post-emergence, 480 h, POST, ECHCG, 20 DAT, read-out: solo application % activity. The method in brief:
as §1

Where two headings read alike, the source gives them in different places.

Compound `COc1c(Cl)c(F)c(F)c(F)c1Nc1nc(N)nc(C(C)(C)F)n1` [Compound I-4, N4-(5-Chloro-2,3,4-trifluoro-6-methoxy-phenyl)-6-(1-fluoro-1-methyl-ethyl)-1,3,5-triazine-2,4-diamine] displayed an inhibition at 4 g/ha in the assay with Ambrosia artemisiifolia (240 h, PRE, use rate 4 gai/ha, 10 DAT) of 10%. The compound also came in with a pest or weed control at 8 g/ha in the assay with Ambrosia artemisiifolia (480 h, PRE, AMBEL, I-4 solo 8 gai/ha, 20 DAT) of 35%. Also, the inhibition at 2 g/ha was 0% in the assay with Ambrosia artemisiifolia (480 h, PRE, AMBEL, use rate 2 gai/ha, 20 DAT, read-out: solo application % activity); 80% in the assay with Amaranthus retroflexus (use rate 2 gai/ha); 0% in the assay on Echinochloa crus-galli (use rate 2 gai/ha). Further, the inhibition at 8 g/ha with Ambrosia artemisiifolia (480 h, PRE, AMBEL, 20 DAT, read-out: solo application % activity) worked out at 30%; with Ambrosia artemisiifolia (AMBEL PRE, read-out: % activity) it was 15%; in the assay with Commelina benghalensis (use rate 8 gai/ha, read-out: solo application % activity), 10%; in the assay with Amaranthus retroflexus (use rate 8 gai/ha), 75%; with Echinochloa crus-galli (use rate 8 gai/ha), 5%. In the assay with Commelina benghalensis (I-4 solo 2 gai/ha, read-out: % activity), the pest or weed control at 2 g/ha was 10%.
